Experimental data as given in PubChem BioAssay (NCI).
Values joined by “and” are separate entries in the source; they are usually repeats but may differ in a detail not shown here. Identical values can stand only once.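 The compound was tested at five concentrations on cells cultured in 96-well plates, with a 48-hour exposure period. Here, GI50 denotes the concentration required for 50% inhibition of growth. TGI denotes the concentration required for complete inhibition of growth.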

Tests used:
Assay in all cases: NCI anticancer screen, dose series, 48 h
HT29 colon = test system: HT29 colon
A549 NSCLC = test system: A549 NSCLC
SNB-75 CNS = test system: SNB-75 CNS
NCI-H23 lung = test system: NCI-H23 lung
CCRF-CEM leukemia = test system: CCRF-CEM leukemia
SR leukemia = test system: SR leukemia
RPMI-8226 leukemia = test system: RPMI-8226 leukemia
MALME-3M melanoma = test system: MALME-3M melanoma
TK-10 renal = test system: TK-10 renal
NCI-H522 lung = test system: NCI-H522 lung

Row | SMILES | TGI (HT29 colon) | TGI (A549 NSCLC) | TGI (SNB-75 CNS) | TGI (NCI-H23 lung) | TGI (CCRF-CEM leukemia) | TGI (SR leukemia) | TGI (RPMI-8226 leukemia) | TGI (MALME-3M melanoma) | TGI (TK-10 renal) | TGI (NCI-H522 lung) | GI50 (HT29 colon) | GI50 (A549 NSCLC) | GI50 (SNB-75 CNS) | GI50 (NCI-H23 lung) | GI50 (CCRF-CEM leukemia) | GI50 (RPMI-8226 leukemia) | GI50 (MALME-3M melanoma) | GI50 (TK-10 renal) | GI50 (NCI-H522 lung) | GI50 (SR leukemia)
1 | O=S(=O)(C1=CC(S(=O)(=O)c2ccccc2)COC1)c1ccccc1 (stereo unspecified) | > 100 µM | > 100 µM | > 100 µM | > 100 µM | > 100 µM | > 100 µM | > 100 µM | > 100 µM | > 100 µM | > 100 µM | – | – | – | – | – | – | – | – | – | –
2 | O=C(CCC(=O)Nc1ccccc1C(F)(F)F)N/N=C1\C(=N\NC(=O)CCC(=O)Nc2ccccc2C(F)(F)F)C(c2ccc3c(c2)OCO3)Oc2ccccc21 (stereo unspecified) | > 100 µM | > 100 µM | 43.2 µM | > 100 µM | 66.3 µM | > 100 µM | > 100 µM | > 100 µM | > 100 µM | > 72.8 µM | – | – | – | – | – | – | – | – | – | –
3 | Cc1ccccc1NC(=O)CC1C(=O)Nc2ccccc2S1=O (stereo unspecified) | > 100 µM | > 100 µM | 65.9 µM | > 100 µM | > 100 µM | > 100 µM | > 100 µM | > 100 µM | > 100 µM | > 100 µM | – | – | – | – | – | – | – | – | – | –
4 | O=C1c2c(O)cccc2C(C(=O)CCCCCC(=O)C2c3cccc(O)c3C(=O)c3c(O)cccc32)c2cccc(O)c21 | 11.4 µM and 23.1 µM | 3.68 µM and 14.5 µM | 6.15 µM and 7.22 µM | 1.88 µM and 12.9 µM | 25 µM and 13.6 µM | 4.33 µM | 2.1 µM and 4.41 µM | 5.87 µM and 15.3 µM | 7.61 µM and 18.7 µM | – | 11.8 µM | 6.6 µM | 1.69 µM | 3.94 µM | 2.05 µM | 1.55 µM | 8.38 µM | 8.83 µM | 6.72 µM | –
5 | Cc1cc(=O)oc2c(C3=NN(C=O)C(c4ccccc4)C3)c(O)ccc12 (stereo unspecified) | > 100 µM | > 32.8 µM | 17.2 µM | > 100 µM | > 100 µM | > 100 µM | > 100 µM | > 85 µM | 87.9 µM | > 93.6 µM | – | – | – | – | – | – | – | – | – | –
6 | CCc1cccc(C(C)C)c1NC(=O)CC1Sc2ccccc2NC1=O (stereo unspecified) | > 100 µM | > 100 µM | > 100 µM | > 100 µM | > 100 µM | 94.4 µM | > 100 µM | > 100 µM | > 100 µM | 97.6 µM | – | – | – | – | – | – | – | – | – | –
7 | O=C(CCc1nc(=S)[nH][nH]1)Nc1cc(Cl)ccc1Cl | > 100 µM | > 100 µM | > 100 µM | > 100 µM | > 100 µM | > 100 µM | > 100 µM | > 100 µM | > 100 µM | > 100 µM | – | – | – | – | – | – | – | – | – | –
8 | Cc1nnc(C[C@@H]2C=C(c3ccc(Cl)cc3)c3ccccc3-n3c(C)nnc32)o1 | > 100 µM | > 82.2 µM | 47.3 µM | 96.9 µM | > 94.1 µM | > 70.6 µM | 19.8 µM | 64.6 µM | 27.1 µM | 32.4 µM | 0.241 µM | 2.61 µM | 0.048 µM | 1.51 µM | 8.6 µM | 0.135 µM | 5.01 µM | 0.148 µM | 0.578 µM | 0.27 µM
9 | Cc1cccc(C(C)(C)C)c1NC(=O)C(C#N)C1=C(Cl)C(=O)c2ccccc2C1=O (stereo unspecified) | 40.7 µM | 46.7 µM | 27.6 µM | 30.2 µM | 10.7 µM | > 100 µM | 49.2 µM | 31.1 µM | 33.3 µM | 26.9 µM | – | – | – | – | – | – | – | – | – | –
10 | COC(=O)C(=O)C(CC(=O)Nc1cc(Cl)ccc1Cl)C(=O)OC (stereo unspecified) | > 100 µM | > 100 µM | > 100 µM | > 100 µM | > 100 µM | > 100 µM | > 100 µM | > 100 µM | > 100 µM | > 100 µM | – | – | – | – | – | – | – | – | – | –
11 | N#C/C(=C\c1ccc(O)c(O)c1)C(=O)NCc1ccc(C(F)(F)F)cc1 | 50.7 µM | 53.5 µM | 55.7 µM | 18.5 µM | 14.7 µM | 6 µM | – | 30.7 µM | 10.4 µM | 19.6 µM | 15.7 µM | 10.9 µM | 13.3 µM | 4.54 µM | 2.14 µM | 3.21 µM | 0.771 µM | – | 3.06 µM | 2.47 µM
12 | NC(N)=NN=c1c(=O)c2ccccc2c1=O | 6.27 µM | 30.5 µM | 23.7 µM | 3.94 µM | 5.27 µM | 5.92 µM | 29.6 µM | 3.06 µM | 37.4 µM | 32.8 µM | 2.81 µM | 12.4 µM | 11.4 µM | 1.79 µM | 2.14 µM | 5.7 µM | 1.66 µM | 22.6 µM | 17.7 µM | 2.4 µM
